{"source": "patent US5084082A", "about": "“Soybean plants with dominant selectable trait for herbicide resistance” (priority 1990, dated 1992)", "key": {"[1]": {"test_system": "Acetolactate synthase (ALS) from leaves of W19", "assay": "Test D ALS assay with chlorsulfuron", "type": "biochemical, soybean", "procedure": "(§1) Acetolactate synthase (ALS) was extracted from leaves of soybean plants growing vegetatively. The leaves were homogenized in 4 volumes of buffer containing 100 mM hepes (pH 7.5), 1 mM sodium pyruvate, 0.5 mM magnesium chloride, 0.5 mM thiamine pyrophosphate, […], 10% glycerol, 5% PVPP, and 0.2% mercaptoethanol. The homogenate was filtered through cheese cloth and centrifuged at 20,000 g for 20 min. ALS was precipitated from the supernatant with ammonium sulfate. The enzyme was collected between 20 and 60% saturation by centrifugation at 20,000 g for 20 min. The pellet was resuspended in buffer containing 100 mM Hepes, 1 mM sodium pyruvate, and 0.5 mM magnesium chloride, and desalted on PD-10 columns (Pharmacia) equilibrated with the same buffer. ALS assays were carried out in a final volume of 0.5 mL at 30° C. The final reaction mixture contained 100 mM Hepes (pH 7.5), 1 mM magnesium chloride, 60 mM sodium pyruvate, 0.4 mM thiaminepyrophosphate, […], and various concentrations of chlorsulfuron. The assays were initiated with the addition of enzyme ([…]) and terminated with the addition of […] of 6N sulfuric acid. The acidified reaction mixture was heated to 60° C. for 15 min, after which 0.5 mL of 0.5% (W/V) creatine and 0.5 mL of 5% (W/V) napthol (freshly prepared in 2.5 N sodium hydroxide) were added. The reaction mixtures were heated for an additional 15 min at 60° C., and the absorbance was read at 525 nm. Data are expressed in terms of % control (minus Compound 1) activity and are the average of two replications. Fisher's least significant difference (LSD) value (at the 95% level of confidence) was calculated for each Compound 1 concentration to determine the significance of genotype mean differences."}, "[2]": {"test_system": "Acetolactate synthase (ALS) from leaves of W20", "assay": "Test D ALS assay with chlorsulfuron", "type": "biochemical, soybean", "procedure": "as §1"}, "[3]": {"test_system": "Acetolactate synthase (ALS) from leaves of Williams 82", "assay": "Test D ALS assay with chlorsulfuron", "type": "biochemical, soybean", "procedure": "as §1"}, "[4]": {"test_system": "Acetolactate synthase (ALS) from leaves of W28", "assay": "Test D ALS assay with chlorsulfuron", "type": "biochemical, soybean", "procedure": "as §1"}, "[5]": {"test_system": "Acetolactate synthase (ALS) from leaves of W23", "assay": "Test D ALS assay with chlorsulfuron", "type": "biochemical, soybean", "procedure": "as §1"}, "[6]": {"test_system": "Williams-NMU-1 M2 seedlings", "assay": "Hydroponic selection of M2 seeds with Compound 1", "type": "in vivo, soybean", "conditions": "100 ppb", "procedure": "Four Modified Hydropot Solo units were prepared as described in the Detailed Description by filling the planting tanks with a 5 cm layer of pea gravel followed by a 10 cm layer of fine vermiculite. M2 seeds of the William-NMU-1 were densely planted (approx. 16,600 seeds per square meter) by placing the seeds in a single horizontal layer on top of the vermiculite and then covering the seeds with a second level 2.5 cm layer of vermiculite. The nutrient solution reservoir was filled with tap water supplemented with 100 ppb of Compound 1 as the selective agent. Plant tanks were irrigated with the Compound 1 solution for four 30 minute periods per day beginning at 12 midnight, 8 AM, 12 noon, and 4 pm. […] The W20 plant was gently removed from the from the hydroponic planting tank and transplanted into a 20 cm pot containing a standard peat-based potting mixture. […] This observation led the applicant to believe that W20 represented a new class of resistant mutants. W20 was allowed to reach maturity under greenhouse conditions and produce an M3 line that was also referred to as W20.\nM2 seeds of the Williams-NMU-1 treatment (Table II) were densely planted (approximately 16,600 seeds Per m2) on top of a level 7 cm layer of granular vermiculite supported by the upper chamber of the planting tank of the previously described large hydroponic selection system. […]"}, "Williams": {"test_system": "Williams", "assay": "Seed soak test with Compound 8", "type": "in vivo, soybean", "conditions": "seeds soaked 16 hours in 2 ppm solution, within two weeks of planting", "procedure": "(§2) The original W4-4 M2 plant was allowed to self pollinate, mature, and produced a family of M3 seeds. An M3 progeny test was then conducted to determine if the new resistance phenotype was heritable and if the M3 family was true-breeding or segregating for the new resistance trait. The M3 progeny of W4-4 were screened for resistance with the same seed soak technique used to select the original W4-4 M2 plant. Twenty seeds each of the W4-4 M3 family, W20 line, and Williams line were soaked for 16 hours in a solution of 2 ppm of Compound 8. Twenty additional seeds of Williams were soaked for 16 hours in plain tap water as a control treatment. Treated seeds were then washed for two minutes in running water. Each seed was then planted in a separate pot for ease of observation."}, "W4-4 M3 family": {"test_system": "W4-4 M3 family", "assay": "Seed soak test with Compound 8", "type": "in vivo, soybean", "conditions": "W4-4 M3, seeds soaked 16 hours in 2 ppm solution, within two weeks of planting", "procedure": "as §2"}}, "data": [{"smiles": "COc1nc(C)nc(NC(=O)NS(=O)(=O)c2ccccc2Cl)n1", "note": "[Compound 1, 2-chloro-N-[[(4-methoxy-6-methyl-1,3,5-triazin-2-yl)amino]carbonyl]benzenesulfonamide]", "values": [{"measurement": "uninhibited ALS activity (% of control)", "setting": "[1]; W19, chlorsulfuron 10 mg/l-l", "result": "60.7 % of control"}, {"measurement": "uninhibited ALS activity (% of control)", "setting": "[1]; W19, chlorsulfuron 20 mg/l-l", "result": "54.5 % of control"}, {"measurement": "uninhibited ALS activity (% of control)", "setting": "[1]; W19, chlorsulfuron 50 mg/l-l", "result": "48.7 % of control"}, {"measurement": "uninhibited ALS activity (% of control)", "setting": "[1]; W19, chlorsulfuron 100 mg/l-l", "result": "45.7 % of control"}, {"measurement": "uninhibited ALS activity (% of control)", "setting": "[1]; W19, chlorsulfuron 200 mg/l-l", "result": "40.8 % of control"}, {"measurement": "uninhibited ALS activity (% of control)", "setting": "[2]; W20, chlorsulfuron 10 mg/l-l", "result": "50.6 % of control"}, {"measurement": "uninhibited ALS activity (% of control)", "setting": "[2]; W20, chlorsulfuron 20 mg/l-l", "result": "35.2 % of control"}, {"measurement": "uninhibited ALS activity (% of control)", "setting": "[2]; W20, chlorsulfuron 50 mg/l-l", "result": "31.1 % of control"}, {"measurement": "uninhibited ALS activity (% of control)", "setting": "[2]; W20, chlorsulfuron 100 mg/l-l", "result": "20.8 % of control"}, {"measurement": "uninhibited ALS activity (% of control)", "setting": "[2]; W20, chlorsulfuron 200 mg/l-l", "result": "19.0 % of control"}, {"measurement": "uninhibited ALS activity (% of control)", "setting": "[3]; WM 82, chlorsulfuron 10 mg/l-l", "result": "41.1 % of control"}, {"measurement": "uninhibited ALS activity (% of control)", "setting": "[3]; WM 82, chlorsulfuron 20 mg/l-l", "result": "26.3 % of control"}, {"measurement": "uninhibited ALS activity (% of control)", "setting": "[3]; WM 82, chlorsulfuron 50 mg/l-l", "result": "15.0 % of control"}, {"measurement": "uninhibited ALS activity (% of control)", "setting": "[3]; WM 82, chlorsulfuron 100 mg/l-l", "result": "11.1 % of control"}, {"measurement": "uninhibited ALS activity (% of control)", "setting": "[3]; WM 82, chlorsulfuron 200 mg/l-l", "result": "8.5 % of control"}, {"measurement": "uninhibited ALS activity (% of control)", "setting": "[4]; W28, chlorsulfuron 10 mg/l-l", "result": "54.6 % of control"}, {"measurement": "uninhibited ALS activity (% of control)", "setting": "[4]; W28, chlorsulfuron 20 mg/l-l", "result": "46.1 % of control"}, {"measurement": "uninhibited ALS activity (% of control)", "setting": "[4]; W28, chlorsulfuron 50 mg/l-l", "result": "42.8 % of control"}, {"measurement": "uninhibited ALS activity (% of control)", "setting": "[4]; W28, chlorsulfuron 100 mg/l-l", "result": "36.4 % of control"}, {"measurement": "uninhibited ALS activity (% of control)", "setting": "[4]; W28, chlorsulfuron 200 mg/l-l", "result": "34.3 % of control"}, {"measurement": "uninhibited ALS activity (% of control)", "setting": "[5]; W23, chlorsulfuron 10 mg/l-l", "result": "55.3 % of control"}, {"measurement": "uninhibited ALS activity (% of control)", "setting": "[5]; W23, chlorsulfuron 20 mg/l-l", "result": "46.3 % of control"}, {"measurement": "uninhibited ALS activity (% of control)", "setting": "[5]; W23, chlorsulfuron 50 mg/l-l", "result": "38.9 % of control"}, {"measurement": "uninhibited ALS activity (% of control)", "setting": "[5]; W23, chlorsulfuron 100 mg/l-l", "result": "37.4 % of control"}, {"measurement": "uninhibited ALS activity (% of control)", "setting": "[5]; W23, chlorsulfuron 200 mg/l-l", "result": "34.0 % of control"}, {"measurement": "effect on surrounding seedlings", "setting": "[6]; Modified Hydropot Solo units, twelve days after planting", "result": "lethal to the surrounding seedlings"}, {"measurement": "effect on background of wild type seedlings", "setting": "[6]; large hydroponic unit, 8 days after planting", "result": "uniformly inhibited"}]}, {"smiles": "COC(=O)c1cccnc1S(=O)(=O)NC(=O)Nc1nc(OC)cc(OC)n1", "note": "[Compound 8, Methyl 2-[[[[(4,6-dimethoxy-2-pyrimidinyl)amino]carbonyl]amino]sulfonyl]-3-pyridinecarboxylate]", "values": [{"measurement": "seedling development after seed soak", "setting": "Williams", "result": "had not started to form true leaves"}, {"measurement": "seedling development after seed soak", "setting": "W4-4 M3 family", "result": "had developed both unifoliolate and trifoliolate leaves"}]}]}
